Measurements: ChEMBL document CHEMBL1255477, “In vitro properties of BAL30072, a novel siderophore sulfactam with activity against multiresistant gram-negative bacilli” (Antimicrob Agents Chemother, 2010)
Values after ≈ are worked out from the molar mass of the structure shown. Values joined by “and” are separate entries in the source; they are usually repeats but may differ in a detail not shown here. Equal entries are not always repeated. Active and inactive are the calls of the source. The calls are words filed in the database; no cut-off is given here.

Experiments:
[1] = Inhibition of beta-lactamase VIM-1
[2] = test system: Pseudomonas aeruginosa; experiment: Antimicrobial activity against Pseudomonas aeruginosa HPA10586 assessed as log reduction in colony count within 6 hrs selected after 1 to 16 times MIC compound exposure; format: functional, organism-based
[3] = test system: Escherichia coli; experiment: Antimicrobial activity against Escherichia coli W3110 assessed as highest concentration at which colonies reappeared; format: functional
[4] = test system: Proteus penneri; experiment: Antimicrobial activity against Proteus penneri by broth dilution method; format: functional
[5] = test system: Enterobacter cloacae; experiment: Antimicrobial activity against Enterobacter cloacae S9369 assessed as appearance of colony at 4 times MIC concentration; format: functional, organism-based
[6] = test system: Acinetobacter baumannii; experiment: Microbicidal activity against Acinetobacter baumannii HPA74510 selected after 4 times MIC compound exposure; format: functional
[7] = test system: Pseudomonas aeruginosa; experiment: Antimicrobial activity against mexAB-oprM protein and mexCD-oprJ deficient Pseudomonas aeruginosa PAO253 overexpressing MexEF-OprN gene by broth dilution method; format: functional
[8] = test system: Klebsiella pneumoniae; experiment: Antimicrobial activity against Klebsiella pneumoniae by broth dilution method; format: functional
[9] = test system: Stenotrophomonas maltophilia; experiment: Antimicrobial activity against Stenotrophomonas maltophilia 1AC736 assessed as log reduction in colony count within 6 hrs selected after 1 to 16 times MIC compound exposure; format: functional, organism-based
[10] = test system: Acinetobacter junii; experiment: Antimicrobial activity against Acinetobacter junii 15218 assessed as highest concentration at which colonies reappeared; format: functional
[11] = test system: Enterobacter cloacae; experiment: Antimicrobial activity against Enterobacter cloacae S9369 assessed as number of passages required for MIC to rise above 4 times original MIC; format: functional
[12] = test system: Acinetobacter baumannii; experiment: Antimicrobial activity against Acinetobacter baumannii HPA I-16 harboring beta-lactamase OXA-27 by broth dilution method; format: functional
[13] = test system: Klebsiella pneumoniae; experiment: Antimicrobial activity against Klebsiella pneumoniae 26768WU harboring beta-lactamase SHV-5 by broth dilution method; format: functional
[14] = Inhibition of Beta-lactamase IMP1
[15] = test system: Pseudomonas aeruginosa; experiment: Microbicidal activity against Pseudomonas aeruginosa (560546)9 M.P. selected after 4 times MIC compound exposure; format: functional
[16] = test system: Pseudomonas aeruginosa; experiment: Antimicrobial activity against fpvA deficient Pseudomonas aeruginosa (560546)9 M.P. by broth dilution method; format: functional
[17] = Inhibition of Pseudomonas aeruginosa 18S/H beta-lactamase class C
[18] = test system: Pseudomonas aeruginosa; experiment: Antimicrobial activity against Pseudomonas aeruginosa 1024 assessed as log reduction in colony count within 6 hrs selected after 4 to 8 times MIC compound exposure; format: functional, organism-based
[19] = Inhibition of Escherichia coli Penicillin-binding protein 1A
[20] = test system: Stenotrophomonas maltophilia; experiment: Microbicidal activity against Stenotrophomonas maltophilia 1AC736 selected after MIC of compound exposure; format: functional
[21] = test system: Pseudomonas aeruginosa; experiment: Antimicrobial activity against Pseudomonas aeruginosa BA(C1-106) selected after 25 ug/ml of compound exposure by broth dilution method; format: functional
[22] = test system: Klebsiella oxytoca; experiment: Antimicrobial activity against Klebsiella oxytoca by broth dilution method; format: functional
[23] = test system: Pseudomonas aeruginosa; experiment: Antimicrobial activity against Pseudomonas aeruginosa BA assessed as number of passages required for MIC to rise above 4 times original MIC; format: functional
[24] = test system: Enterobacter cloacae; experiment: Microbicidal activity against Enterobacter cloacae S9369 selected after 8 times MIC compound exposure; format: functional
[25] = test system: Acinetobacter baumannii; experiment: Antimicrobial activity against Acinetobacter baumannii HPA74510 assessed as log reduction in colony count after 24 hrs; format: functional
[26] = test system: Pseudomonas aeruginosa; experiment: Antimicrobial activity against Pseudomonas aeruginosa 621 assessed as number of passages required for MIC to rise above 4 times original MIC; format: functional
[27] = test system: Providencia stuartii; experiment: Antimicrobial activity against Providencia stuartii by broth dilution method; format: functional
[28] = test system: Escherichia coli; experiment: Antimicrobial activity against Escherichia coli A harboring beta-lactamase CTX-M 15 by broth dilution method; format: functional
[29] = test system: Pseudomonas aeruginosa; experiment: Antimicrobial activity against Pseudomonas aeruginosa 621 assessed as appearance of colony at 4 times MIC concentration; format: functional
[30] = test system: Pseudomonas aeruginosa; experiment: Microbicidal activity against Pseudomonas aeruginosa HPA10586 selected after 8 times MIC compound exposure; format: functional
[31] = test system: Pseudomonas aeruginosa; experiment: Antimicrobial activity against Pseudomonas aeruginosa 1973E harboring beta-lactamase PSE-1 and class C enzymes by broth dilution method; format: functional
[32] = test system: Pseudomonas aeruginosa; experiment: Microbicidal activity against Pseudomonas aeruginosa 527 selected after 4 times MIC compound exposure; format: functional
[33] = test system: Acinetobacter baumannii; experiment: Antimicrobial activity against Acinetobacter baumannii HPA74510 assessed as highest concentration at which colonies reappeared; format: functional
[34] = test system: Escherichia coli; experiment: Antimicrobial activity against Escherichia coli HB101 harboring beta-lactamase TEM-5 by broth dilution method; format: functional
[35] = test system: Pseudomonas aeruginosa; experiment: Microbicidal activity against Pseudomonas aeruginosa BA selected after 8 times MIC compound exposure; format: functional
[36] = test system: Enterobacter cloacae; experiment: Antimicrobial activity against Enterobacter cloacae S4741B assessed as log reduction in colony count after 24 hrs; format: functional
[37] = test system: Pseudomonas aeruginosa; experiment: Antimicrobial activity against mexAB-oprM, mexCD-oprJ, mexEF-oprN, mexJK, mexXY, opmH and pscC gene deficient Pseudomonas aeruginosa PAO750 by broth dilution method; format: functional
[38] = test system: Pseudomonas aeruginosa; experiment: microbe, parasite or virus in culture; conditions: PAO1
Description: Antimicrobial activity against Pseudomonas aeruginosa PAO1 by broth dilution method

[39] = test system: Escherichia coli; experiment: Antimicrobial activity against Escherichia coli W3110 assessed as appearance of colony at 4 times MIC concentration; format: functional, organism-based
[40] = test system: Burkholderia sp.; experiment: Antimicrobial activity against Burkholderia sp. by broth dilution method; format: functional
[41] = test system: Enterobacter cloacae; experiment: Antimicrobial activity against Enterobacter cloacae S4741B assessed as highest concentration at which colonies reappeared; format: functional
[42] = Inhibition of Pseudomonas aeruginosa 143724R beta-lactamase class C
[43] = test system: Acinetobacter baumannii; experiment: Antimicrobial activity against Acinetobacter baumannii HPA74510 assessed as appearance of colony at 4 times MIC concentration; format: functional, organism-based
[44] = test system: Enterobacter cloacae; experiment: Antimicrobial activity against Enterobacter cloacae S9369 selected after MIC of compound exposure by broth dilution method; format: functional
[45] = test system: Pseudomonas aeruginosa; experiment: Microbicidal activity against Pseudomonas aeruginosa 527 selected after 8 times MIC compound exposure; format: functional
[46] = test system: Stenotrophomonas maltophilia; experiment: Microbicidal activity against Stenotrophomonas maltophilia 1AC736 selected after 2 times MIC compound exposure; format: functional
[47] = test system: Enterobacter cloacae; experiment: Antimicrobial activity against Enterobacter cloacae S4741B by broth dilution method; format: functional
[48] = test system: Pseudomonas aeruginosa; experiment: Antimicrobial activity against Pseudomonas aeruginosa BA assessed as doubling time; format: functional
[49] = test system: Klebsiella pneumoniae; experiment: Antimicrobial activity against Klebsiella pneumoniae 1338665 by broth dilution method; format: functional
[50] = test system: Pseudomonas aeruginosa; experiment: Microbicidal activity against Pseudomonas aeruginosa BA selected after 4 times MIC compound exposure; format: functional
[51] = test system: Pseudomonas aeruginosa; experiment: Antimicrobial activity against Pseudomonas aeruginosa BA(C1-106) mutant assessed as doubling time; format: functional
[52] = test system: Acinetobacter baumannii; experiment: Antimicrobial activity against Acinetobacter baumannii HPA74510 selected after 4 times MIC compound exposure; format: functional
[53] = test system: Pseudomonas aeruginosa; experiment: Antimicrobial activity against Pseudomonas aeruginosa 860 by broth dilution method; format: functional
[54] = test system: Enterobacter cloacae; experiment: Antimicrobial activity against Enterobacter cloacae S9369 by broth dilution method; format: functional
[55] = test system: Pseudomonas aeruginosa; experiment: Microbicidal activity against Pseudomonas aeruginosa (560546)9 M.P. selected after MIC of compound exposure; format: functional
[56] = test system: Pseudomonas aeruginosa; experiment: Antimicrobial activity against Pseudomonas aeruginosa 527 assessed as appearance of colony at 4 times MIC concentration; format: functional

For `CC1(C)[C@H](NC(=O)/C(=N\OCc2cc(=O)c(O)cn2O)c2csc(N)n2)C(=O)N1OS(=O)(=O)O` (stereo in doubt), the IC50 [1] was > 500 µM, the Activity [2] was “Active” and the Activity [3] was 1 mg/L. The MIC [4] was ≤ 0.06 µg/mL, the MIC50 [4] was ≤ 0.06 µg/mL and the MIC90 [4] was 0.25 µg/mL (≈ 0.482 µM). The Activity [5] was “Active”, the MBC [6] was 0.5 µg/mL (≈ 0.964 µM) and the MIC [7] was 0.5 µg/mL (≈ 0.964 µM). For the same compound, the MIC50 [8] was 16 µg/mL (≈ 30.9 µM), the MIC90 [8] was > 32 µg/mL and the Activity [9] was “Active”. The Activity [10] was 1 mg/L, the Activity [11] was 8 passages and the MIC [12] was 0.5 µg/mL (≈ 0.964 µM). The MIC [13] was > 32 µg/mL, the IC50 [14] was > 2.5 mM and the MBC [15] was 4 µg/mL (≈ 7.71 µM). The MIC [16] was 1 µg/mL (≈ 1.93 µM), the IC50 [17] was 28 µM and the Activity [18] was “Active”. It also gave an IC50 [19] of 3.9 µM, an MBC [20] of 0.125 µg/mL and an MIC [21] of 16 µg/mL (≈ 30.9 µM). It also gave an MIC50 [22] of 0.125 µg/mL (≈ 0.241 µM), an MIC90 [22] of 4 µg/mL (≈ 7.71 µM) and an Activity [23] of 5 passages. For the same compound, the MBC [24] was 8 µg/mL (≈ 15.4 µM), the FC [25] was 3 and the Activity [26] was 5 passages. For the same compound, the MIC [27] was ≤ 0.06 µg/mL, the MIC50 [27] was ≤ 0.06 µg/mL and the MIC90 [27] was ≤ 0.06 µg/mL. For the same compound, the MIC [28] was 0.125 µg/mL (≈ 0.241 µM), the Activity [29] was 2.8 frequency and 2.5 frequency and the MBC [30] was 8 µg/mL (≈ 15.4 µM). The MIC [31] was 4 µg/mL (≈ 7.71 µM), the MBC [32] was 8 µg/mL (≈ 15.4 µM) and the Activity [33] was 4 mg/L. It also gave an MIC [34] of 32 µg/mL (≈ 61.7 µM), an MBC [35] of 4 µg/mL (≈ 7.71 µM) and an FC [36] of 3. The MIC [37] was ≤ 0.06 µg/mL, the MIC [38] was 2 µg/mL (≈ 3.86 µM) and the Activity [39] was “Active”. For the same compound, the MIC [40] was ≤ 0.06 µg/mL, the MIC50 [40] was ≤ 0.06 µg/mL and the MIC90 [40] was 0.125 µg/mL (≈ 0.241 µM). For the same compound, the Activity [41] was 16 mg/L, the IC50 [42] was 27 µM and the Activity [43] was “Active”.

Work on `C[C@@H](O)[C@H]1C(=O)N2C(C(=O)O)=C(S[C@@H]3CN[C@H](C(=O)N(C)C)C3)[C@H](C)[C@H]12` [MEROPENEM] yielded an MBC [44] of 2 µg/mL, an MIC50 [4] of 0.125 µg/mL (≈ 0.326 µM) and an MIC90 [4] of 0.5 µg/mL (≈ 1.3 µM). The Activity [5] was “Active”, the MBC [45] was 32 µg/mL (≈ 83.4 µM) and the MIC [7] was 0.5 µg/mL (≈ 1.3 µM). The MIC50 [8] was ≤ 0.06 µg/mL, the MIC90 [8] was 16 µg/mL (≈ 41.7 µM) and the Activity [11] was 9 passages. For the same compound, the MIC [12] was > 32 µg/mL, the MIC [13] was ≤ 0.06 µg/mL and the MBC [46] was 16 µg/mL (≈ 41.7 µM). The MIC [16] was 2 µg/mL (≈ 5.22 µM), the MIC [47] was 1 µg/mL (≈ 2.61 µM) and the Time [48] was 1.5 h. For the same compound, the MIC [21] was 1 µg/mL (≈ 2.61 µM), the MIC [49] was 4 µg/mL (≈ 10.4 µM) and the MIC50 [22] was ≤ 0.06 µg/mL. For the same compound, the MIC90 [22] was 1 µg/mL (≈ 2.61 µM), the Activity [23] was 3 passages and the Activity [26] was 2 passages. The MBC [50] was 2 µg/mL (≈ 5.22 µM), the Time [51] was 3.8 h and the MIC50 [27] was 0.25 µg/mL (≈ 0.652 µM). The MIC90 [27] was > 32 µg/mL, the MIC [28] was 0.125 µg/mL (≈ 0.326 µM) and the Activity [29] was 1 frequency. For the same compound, the MIC [31] was 4 µg/mL (≈ 10.4 µM), the MIC [52] was > 128 µg/mL and the MIC [34] was ≤ 0.06 µg/mL. For the same compound, the MIC [37] was 0.5 µg/mL (≈ 1.3 µM), the MIC [38] was 1 µg/mL (≈ 2.61 µM) and the Activity [39] was “Active”. For the same compound, the MIC [53] was 4 µg/mL (≈ 10.4 µM), the MIC [54] was 4 µg/mL (≈ 10.4 µM) and the MBC [55] was 2 µg/mL. The MIC50 [40] was 2 µg/mL (≈ 5.22 µM), the MIC90 [40] was 4 µg/mL (≈ 10.4 µM) and the Activity [43] was “inactive”. The Activity [56] was “inactive”.
